Reference: article PMC9897788, “Design, synthesis and cytotoxic evaluation of novel bis-thiazole derivatives as preferential Pim1 kinase inhibitors with in vivo and in silico study” (Journal of Enzyme Inhibition and Medicinal Chemistry, 2023)

Tests used:
[1] = Solubility in DMSO (NMR observation); format: physicochemical; conditions: noticed from weak NMR signals
Pim2 kinase = Pim2 kinase (Homo sapiens, UniProt Q9P1W9); assay: In vitro Pim2 kinase inhibition assay (ADP-Glo); format: biochemical; conditions: n = 3
Sequence of Pim2 kinase (Q9P1W9 whole entry): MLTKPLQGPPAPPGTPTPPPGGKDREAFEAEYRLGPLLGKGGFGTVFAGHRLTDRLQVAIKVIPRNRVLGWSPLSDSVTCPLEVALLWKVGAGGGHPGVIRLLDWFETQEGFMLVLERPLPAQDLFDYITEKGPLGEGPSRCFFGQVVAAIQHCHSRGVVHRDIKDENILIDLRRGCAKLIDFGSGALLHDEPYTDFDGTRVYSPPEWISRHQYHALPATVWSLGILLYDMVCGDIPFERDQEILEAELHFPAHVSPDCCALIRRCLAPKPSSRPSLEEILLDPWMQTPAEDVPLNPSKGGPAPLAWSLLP

| Compound | solubility in DMSO [1] | IC50 (Pim2 kinase) |
| --- | --- | --- |
| Cc1nc(Nc2cccc(Nc3nc(C)c(N=Nc4ccccc4)s3)c2)sc1N=Nc1ccccc1 [5a, N^1,N^3-bis(4-methyl-5-(phenyldiazenyl)thiazol-2-yl)benzene-1,3-diamine] | poor solubility in DMSO |  |
| CC(=O)c1sc(Nc2cccc(Nc3nc(C)c(C(C)=O)s3)c2)nc1C [3b, 1,1’-(2,2’-(1,3-Phenylenebis(azanediyl))bis(4-methylthiazole-5,2-diyl))diethanone] |  | 6.05 µM |
| Fc1ccc(-c2cs/c(=N\c3ccccc3)n2-c2cccc(-n3c(-c4ccc(F)cc4)cs/c3=N\c3ccccc3)c2)cc1 [8b, N,N’-(3,3’-(1,3-phenylene)bis(4–(4-fluorophenyl)thiazole-3(3H)-yl-2(3H)-ylidene))dianiline] |  | 10.5 µM |
